The NIST ThermoML archive (doi:10.1016/j.fluid.2019.06.020)
Numbers after ± are expanded uncertainties.

Details: Liquid, Closed cell (Static) method

Structure (SMILES) | vapor or sublimation pressure (273.17 K) [kPa] | vapor or sublimation pressure (278.17 K) [kPa] | vapor or sublimation pressure (283.16 K) [kPa] | vapor or sublimation pressure (288.16 K) [kPa] | vapor or sublimation pressure (293.15 K) [kPa] | vapor or sublimation pressure (298.15 K) [kPa] | vapor or sublimation pressure (303.15 K) [kPa] | vapor or sublimation pressure (308.15 K) [kPa] | vapor or sublimation pressure (313.15 K) [kPa] | vapor or sublimation pressure (318.15 K) [kPa] | vapor or sublimation pressure (323.15 K) [kPa] | vapor or sublimation pressure (328.15 K) [kPa] | vapor or sublimation pressure (333.15 K) [kPa] | vapor or sublimation pressure (338.14 K) [kPa] | vapor or sublimation pressure (343.14 K) [kPa] | vapor or sublimation pressure (348.13 K) [kPa] | vapor or sublimation pressure (353.13 K) [kPa] | vapor or sublimation pressure (323.14 K) [kPa] | vapor or sublimation pressure (328.14 K) [kPa] | vapor or sublimation pressure (333.14 K) [kPa]
FCC(F)(F)F [1,1,1,2-tetrafluoroethane] | 294.3 ± 5 | 351.2 ± 5.1 | 415.4 ± 5.1 | 488.2 ± 5.1 | 570.6 ± 5.1 | 664.8 ± 5.2 | 769.2 ± 5.2 | 886 ± 5.3 | 1017.7 ± 5.3 | 1158.1 ± 5.4 | 1317.4 ± 5.5 | 1489.6 ± 5.6 | 1679.7 ± 5.8 | 1889.1 ± 6 | 2118.1 ± 6.2 | 2361.2 ± 6.4 | 2634.6 ± 6.7 | – | – | –
C=CC(F)(F)F [1,1,1-trifluoro-2-propene] | 268.8 ± 5 | 318.4 ± 5 | 373.6 ± 5.1 | 437.6 ± 5.1 | 510 ± 5.1 | 590.1 ± 5.1 | 678.2 ± 5.1 | 776.7 ± 5.2 | 883.6 ± 5.2 | 1001.8 ± 5.3 | – | – | – | 1600.5 ± 5.7 | 1785.7 ± 5.8 | 1986.4 ± 6 | 2203.1 ± 6.2 | 1130.4 ± 5.4 | 1274.9 ± 5.5 | 1431.6 ± 5.6
